Laboratory results from patent US6664256B1, “Phenylpyridazine compounds and medicines containing the same” (Kowa Co., Ltd., priority 2000, dated 2003).

Tested on: not given
Assay: not given
Conditions: not given

Compared with `COc1ccc(-c2nnc(Oc3cccc(F)c3F)cc2-c2ccccc2)cc1` [Example 25, 6-(2,3-difluorophenoxy)-3-(4-methoxyphenyl)-4-phenylpyridazine], `COc1ccc(-c2nnc(Oc3ccc(F)cc3F)cc2-c2ccccc2)cc1` [Example 26, 6-(2,4-difluorophenoxy)-3-(4-methoxyphenyl)-4-phenylpyridazine] is higher in melting point: 155.2 to 156.6 °C for the first, 169 to 169.9 °C for the second.

First: CSc1ccc(-c2nnc(Cl)cc2-c2ccc(F)cc2)cc1 [Example 28, 6-chloro-4-(4-fluorophenyl)-3-[4-(methylthio)phenyl]pyridazine]
Second: CSc1ccc(-c2nnc(Cl)cc2-c2ccc(Cl)cc2)cc1 [Example 31, 6-chloro-4-(4-chlorophenyl)-3-[4-(methylthio)phenyl]pyridazine]
The melting point of the first is lower: 130.9 to 131.4 °C for the first, 145 to 145.8 °C for the second.

Compared with `CSc1ccc(-c2nnc(Oc3ccc(F)cc3F)cc2-c2ccc(F)cc2)cc1` [Example 29, 6-(2,4-difluorophenoxy)-4-(4-fluorophenyl)-3-[4-(methylthio)phenyl]pyridazine], `CSc1ccc(-c2nnc(Oc3ccc(F)cc3F)cc2-c2ccc(Cl)cc2)cc1` [Example 33, 4-(4-chlorophenyl)-6-(2,4-difluorophenoxy)-3-[4-(methylthio)phenyl]pyridazine] is higher in melting point: 140.6 to 143.4 °C for the first, 163.2 to 164 °C for the second.

First: CSc1ccc(-c2nnc(Sc3ccccc3)cc2-c2ccc(Sc3ccccc3)cc2)cc1 [Example 32, 3-[4-(methylthio)phenyl]-6-phenylthio-4-[4-(phenylthio)phenyl]pyridazine]
Second: CSc1ccc(-c2nnc(SC)cc2-c2ccc(F)cc2)cc1 [Example 46, 4-(4-fluorophenyl)-6-methylthio-3-[4-(methylthio)phenyl]pyridazine]
The melting point of the first is lower: 53.3 to 56.2 °C for the first, 165.8 to 169.5 °C for the second.

First: CS(=O)(=O)c1ccc(-c2nnc(Oc3ccc(F)cc3F)cc2-c2ccc(Cl)cc2)cc1 [Example 34, 4-(4-chlorophenyl)-6-(2,4-difluorophenoxy)-3-[4-(methylsulfonyl)phenyl]pyridazine]
Second: Cc1cc(-c2ccc(Cl)cc2)c(-c2ccc(S(C)(=O)=O)cc2)nn1 [Example 50, 4-(4-chlorophenyl)-6-methyl-3-[4-(methylsulfonyl)phenyl]pyridazine]
The melting point of the first is lower: 115.2 to 117.3 °C for the first, 205 to 209 °C for the second.

First: COc1ccc(-c2cc(NCc3ccccc3)nnc2-c2ccc(OC)cc2)cc1 [Example 41, 6-benzylamino-3,4-bis(4-methoxyphenyl)pyridazine]
Second: CSc1ccc(-c2nnc(Cl)cc2-c2ccccc2)cc1 [Example 59, 6-chloro-3-[4-(methylthio)phenyl]-4-phenylpyridazine]
The melting point of the first is lower: 125.4 to 126.3 °C for the first, 157.7 to 158.3 °C for the second.

`CS(=O)(=O)c1ccc(-c2nnc(Cl)cc2-c2ccc(Cl)cc2)cc1` [Example 60, 6-chloro-4-(4-chlorophenyl)-3-[4-(methylsulfonyl)phenyl]pyridazine] showed a melting point of 189.6 to 190.5 °C.

Tested on: interleukin-1β production
Assay: Inhibitory activity against interleukin-1β production (LPS-stimulated HL-60 cells, ELISA)
Assay type: cell-based
Conditions: Homo sapiens, 72 h, lipopolysaccharide 10 μg/ml, culturing for 3 days, interleukin-1β determined by ELISA, read-out: IL-β (IC50 μM)
Procedure: Experiment 1 (Inhibitory Activity against Interleukin-1β Production)
Inhibitory activity of the compounds of the present invention, which are represented by the formula (I), against interleukin-1β production was tested by the following experiment:
HL-60 cells were cultured for 4 days until confluence on RPMI 1640 medium with 10% fetal bovine serum (FBS) added thereto. The medium was centrifuged. The supernatant was discarded, and the cells were then suspended at 1×10^6 cells/ml on RPMI 1640 medium with 3% FBS, and lipopolysaccharide was added to give a final concentration of 10 μg/ml . The culture was inoculated at 1 ml/well to a 24-well plate. A test compound was added at 1 μl/well, followed by culturing for 3 days. Three days later, the amount of interleukin-1β in each culture was determined by ELISA. Each IC50 value was determined by a comparison in yield with a control to which no test compound was added.

In order of falling IC50:
1. COc1ccc(-c2cc(Cl)nnc2-c2ccc(OC)cc2)cc1 [Comp. Comp'd 1, reference compound]  32.1 µM
2. CCOC(=O)c1c(Cl)nnc(-c2ccc(OC)cc2)c1-c1ccc(OC)cc1 [Comp. Comp'd 2, reference compound]  4.16 µM
3. COc1ccc(-c2nnc(Oc3ccc(F)cc3F)cc2-c2ccncc2)cc1 [Example 23, 6-(2,4-difluorophenoxy)-3-(4-methoxyphenyl)-4-(4-pyridyl)pyridazine]  0.96 µM
4. CSc1ccc(-c2nnc(Sc3ccccc3)cc2-c2ccc(Sc3ccccc3)cc2)cc1 [Example 32, 3-[4-(methylthio)phenyl]-6-phenylthio-4-[4-(phenylthio)phenyl]pyridazine]  0.94 µM
5. COc1ccc(-c2nnc(C#N)cc2-c2ccccc2)cc1 [Example 66, 6-cyano-3-(4-methoxyphenyl)-4-phenylpyridazine]  0.68 µM
6. COc1ccc(-c2cc(Oc3ccc([N+](=O)[O-])cc3)nnc2-c2ccc(OC)cc2)cc1 [Example 17, 3,4-bis(4-methoxyphenyl)-6-(4-nitrophenoxy)pyridazine]  0.63 µM
7. COc1ccc(-c2cc(Oc3ccc(F)c(F)c3)nnc2-c2ccc(OC)cc2)cc1 [Example 9, 3,4-bis(4-methoxyphenyl)-6-(3,4-difluorophenoxy)pyridazine]  0.46 µM
8. COc1ccc(Oc2cc(-c3ccc(OC)cc3)c(-c3ccc(OC)cc3)nn2)cc1 [Example 15, 3,4-bis(4-methoxyphenyl)-6-(4-methoxyphenoxy)pyridazine]  0.45 µM
9. COc1ccc(-c2cc(Oc3c(F)cccc3F)nnc2-c2ccc(OC)cc2)cc1 [Example 8, 3,4-bis(4-methoxyphenyl)-6-(2,6-difluorophenoxy)pyridazine]  0.35 µM
10. COc1ccc(-c2nnc(Oc3cccc(F)c3F)cc2-c2ccccc2)cc1 [Example 25, 6-(2,3-difluorophenoxy)-3-(4-methoxyphenyl)-4-phenylpyridazine]  0.32 µM
11. COc1ccc(-c2nnc(Oc3ccc(F)cc3F)cc2-c2ccccc2)cc1 [Example 26, 6-(2,4-difluorophenoxy)-3-(4-methoxyphenyl)-4-phenylpyridazine]  0.31 µM
12. CSc1ccc(-c2nnc(Oc3ccc(F)cc3F)cc2-c2ccc(Cl)cc2)cc1 [Example 33, 4-(4-chlorophenyl)-6-(2,4-difluorophenoxy)-3-[4-(methylthio)phenyl]pyridazine]  0.26 µM
13. COc1ccc(-c2cc(Sc3cc(Cl)c(Cl)c(Cl)c3)nnc2-c2ccc(OC)cc2)cc1 [Example 14, 3,4-bis(4-methoxyphenyl)-6-(3,4,5-trichlorophenylthio)pyridazine]  0.2 µM
14. COc1ccc(-c2cc(Oc3c(F)c(F)cc(F)c3F)nnc2-c2ccc(OC)cc2)cc1 [Example 11, 3,4-bis(4-methoxyphenyl)-6-(2,3,5,6-tetrafluorophenoxy)pyridazine]  0.19 µM
15. COc1ccc(-c2cc(Oc3cc(F)ccc3F)nnc2-c2ccc(OC)cc2)cc1 [Example 7, 3,4-bis(4-methoxyphenyl)-6-(2,5-difluorophenoxy)pyridazine]  0.18 µM
16. COc1ccc(-c2cc(Oc3cccc(C#N)c3)nnc2-c2ccc(OC)cc2)cc1 [Example 19, 3,4-bis(4-methoxyphenyl)-6-(3-cyanophenoxy)pyridazine]  0.16 µM
17. COc1ccc(-c2cc(Oc3ccccc3C#N)nnc2-c2ccc(OC)cc2)cc1 [Example 18, 3,4-bis(4-methoxyphenyl)-6-(2-cyanophenoxy)pyridazine]  0.15 µM
18. COc1ccc(-c2cc(Oc3cccc(F)c3F)nnc2-c2ccc(OC)cc2)cc1 [Example 5, 3,4-bis(4-methoxyphenyl)-6-(2,3-difluorophenoxy)pyridazine]  0.12 µM
19. COc1ccc(-c2cc(Oc3ccccc3)nnc2-c2ccc(OC)cc2)cc1 [Example 3, 3,4-bis(4-methoxyphenyl)-6-(phenoxy)pyridazine]  0.1 µM
20. COc1ccc(-c2cc(C#N)nnc2-c2ccc(OC)cc2)cc1 [Example 51, 3,4-bis-(4-methoxyphenyl)-6-cyanopyridazine]  0.09 µM
21. COc1ccc(-c2cc(Oc3c(F)c(F)c(F)c(F)c3F)nnc2-c2ccc(OC)cc2)cc1 [Example 12, 3,4-bis(4-methoxyphenyl)-6(2,3,4,5,6-pentafluorophenoxy)pyridazine]  0.04 µM
22. COc1ccc(-c2nnc(Oc3c(F)c(F)c(F)c(F)c3F)cc2-c2ccccc2)cc1 [Example 27, 3-(4-methoxyphenyl)-6-(2,3,4,5,6-pentafluorophenoxy)-4-phenylpyridazine]  0.01 µM
